Test system in one data set: not listed separately
Kind of data set: logP by HPLC on reversed-phase column (C 18), EEC Directive 79/831 Annex V.A8, Method A (0.1% aqueous phosphoric acid / acetonitrile, 43°C). As to conditions: c18 reversed-phase hplc; LogP method A: HPLC reversed-phase C 18, 43°C, 0.1% aqueous phosphoric acid / acetonitrile. It is filed as physicochemical. The procedure: Calibration was carried out using unbranched alkan-2-ones (having 3 to 16 carbon atoms) with known logP values (determination of the logP values by the retention times using linear interpolation between two successive alkanones).
A word on the chromatographic logP: it is lipophilicity estimated from chromatographic retention. Low readings indicate lower lipophilicity, high ones higher lipophilicity. As for `O=C(c1cccnc1)N(C1CC1)S(=O)(=O)c1ccc(Cl)c(C(F)(F)F)c1` [compound 638], the chromatographic logP stood at 3.1. Turning to `Cc1nn(C)c(Oc2cccc(Cl)c2)c1C(=O)N(C1CC1)S(=O)(=O)c1cccc(Cl)c1` [compound 399], the chromatographic logP stood at 3.94.

`Cc1occc1C(=O)N(C1CC1)S(=O)(=O)c1cccc(Cl)c1` [compound 3] came in with a chromatographic logP of 3.27. Same read-out and setting: in the case of `Cc1c(C(=O)N(C2CC2)S(=O)(=O)c2ccc(Cl)c(Cl)c2)sc(=O)n1Cc1ccccc1` [compound 626] it was 3.01.

The molecule `COc1nn(C)cc1C(=O)N(C1CC1)S(=O)(=O)c1ccccc1Cl` [compound 211] gave a chromatographic logP of 1.94. Still for that read-out and setting: the same measure for `Cc1nn(C)c(C)c1C(=O)N(C1CC1)S(=O)(=O)c1ccccc1Cl` [compound 215]: 2.17; for `Cn1nc(C(=O)N(C2CC2)S(=O)(=O)c2ccccc2Cl)n(C)c1=O` [compound 608]: 1.97; for `COCCn1c(C)c(C(=O)N(C2CC2)S(=O)(=O)c2ccc(Cl)cc2Cl)sc1=O` [compound 620]: 2.01. Turning to `Cc1nn(C)c(F)c1C(=O)N(C1CC1)S(=O)(=O)c1c(Cl)cccc1Cl` [compound 218], the chromatographic logP worked out at 2.52. `CC1=C(C(=O)N(C2CC2)S(=O)(=O)c2ccccc2Cl)OCCS1` [compound 652] registered a chromatographic logP of 2.78. `CCc1c(C(=O)N(C2CC2)S(=O)(=O)c2ccc(Cl)c(Cl)c2)sc(=O)n1C1CC1` [compound 630] gave a chromatographic logP of 4.08.

As for `Cc1nc(C(=O)N(C2CC2)S(=O)(=O)c2ccc(Cl)c(C(F)(F)F)c2)cs1` [compound 69], the chromatographic logP worked out at 3.63. Take `CCOC(=O)c1[nH]c(C)c(C(=O)N(C2CC2)S(=O)(=O)c2ccc(Cl)c(C(F)(F)F)c2)c1C` [compound 31]: the chromatographic logP was determined as 4.08.

Consider `CC(C)c1c(C(=O)N(C2CC2)S(=O)(=O)c2ccc(Cl)cc2Cl)sc(=O)n1C1CC1` [compound 635], for which the chromatographic logP came to 2.01. Same read-out and setting: the same measure for `Cn1cc(C(=O)N(C2CC2)S(=O)(=O)c2ccccc2Cl)c(C(F)(F)F)n1` [compound 200]: 2.71; for `Cc1nn(C)c(F)c1C(=O)N(C1CC1)S(=O)(=O)c1ccc(Cl)c(Cl)c1` [compound 178]: 3.35. Molecule `Cc1ncc(C(=O)N(C2CC2)S(=O)(=O)c2ccc(Cl)c(Cl)c2)s1` [compound 63] showed a chromatographic logP of 3.33.

`Cc1c(C(=O)N(C2CC2)S(=O)(=O)c2ccc(Cl)cc2Cl)sc(=O)n1Cc1ccccc1` [compound 627] gave a chromatographic logP of 4.03. Regarding `Cc1cc(C(=O)N(C2CC2)S(=O)(=O)c2ccccc2Cl)nc(Cl)n1` [compound 654], the chromatographic logP is 2.93.

`Cc1occc1C(=O)N(C1CC1)S(=O)(=O)c1ccccc1Cl` [compound 4] showed a chromatographic logP of 2.77. With `Cc1nn(C)c(Oc2cccc(Cl)c2)c1C(=O)N(C1CC1)S(=O)(=O)c1ccc(Cl)c(C(F)(F)F)c1` [compound 404], the chromatographic logP was determined as 4.56. Molecule `Cc1n[nH]c(C)c1C(=O)N(C1CC1)S(=O)(=O)c1ccc(C(F)(F)F)cc1` [compound 402] registered a chromatographic logP of 2.58. For `CCc1c(C(=O)N(C2CC2)S(=O)(=O)c2ccc(Cl)cc2Cl)sc(=O)n1C1CC1` [compound 631], the chromatographic logP worked out at 2.01. Consider `O=C(C1=C(C(F)(F)F)OCCS1)N(C1CC1)S(=O)(=O)c1ccccc1Cl` [compound 653], for which the chromatographic logP came to 3.2.

As to `Cc1nn(C)c(F)c1C(=O)N(C1CC1)S(=O)(=O)c1cc(Cl)sc1Cl` [compound 435], the chromatographic logP was found to be 3.16. Same read-out and setting: in the case of `Cc1ncc(C(=O)N(C2CC2)S(=O)(=O)c2cccc(Cl)c2)s1` [compound 60] it was 2.8; in that of `Cc1nn(C)c(Oc2cccc(Cl)c2)c1C(=O)N(C1CC1)S(=O)(=O)c1ccc(Cl)c(Cl)c1` [compound 405], 4.46.

The molecule `Cc1n[nH]c(C)c1C(=O)N(C1CC1)S(=O)(=O)c1ccc(Cl)c(Cl)c1` [compound 409] returned a chromatographic logP of 2.74. On the same count and under the same terms, in the case of `Cc1c(C(=O)N(C2CC2)S(=O)(=O)c2ccc(Cl)c(C(F)(F)F)c2)sc(=O)n1Cc1ccccc1` [compound 625] it was 3.01; in that of `Cc1n[nH]c(C)c1C(=O)N(C1CC1)S(=O)(=O)c1ccc(Cl)c(C(F)(F)F)c1` [compound 408], 3; in that of `Cn1nc(C(F)(F)F)c(C(=O)N(C2CC2)S(=O)(=O)c2ccccc2Cl)c1Cl` [compound 208], 3.27.

For `Cc1c(C(=O)N(C2CC2)S(=O)(=O)c2ccccc2Cl)cnn1-c1ccccc1` [compound 201], the chromatographic logP was 2.97.

Consider `Cc1c(C(=O)N(C2CC2)S(=O)(=O)c2ccc(Cl)c(C(F)(F)F)c2)sc(=O)n1C` [compound 622], for which the chromatographic logP came to 2.01. As to `Cc1ncc(C(=O)N(C2CC2)S(=O)(=O)c2ccc(Cl)c(C(F)(F)F)c2)s1` [compound 62], the chromatographic logP was 3.46. For the molecule `Cc1c(C(=O)N(C2CC2)S(=O)(=O)c2ccc(Cl)c(Cl)c2)sc(=O)n1C` [compound 623], the chromatographic logP turned out to be 2.01.

Take `CC(C)c1c(C(=O)N(C2CC2)S(=O)(=O)c2cccc(Cl)c2)sc(=O)n1C1CC1` [compound 617]: the chromatographic logP came to 2.01. On the same count and under the same terms, the same measure for `Cc1nn(C)c(F)c1C(=O)N(C1CC1)S(=O)(=O)c1ccc(Cl)c(Cl)c1Cl` [compound 212]: 3.35; for `CCc1c(C(=O)N(C2CC2)S(=O)(=O)c2cccc(Cl)c2)sc(=O)n1C1CC1` [compound 615]: 2.01. For `CC(C)c1c(C(=O)N(C2CC2)S(=O)(=O)c2ccc(Cl)c(Cl)c2)sc(=O)n1C1CC1` [compound 634], the chromatographic logP amounted to 3.01.

Molecule `COCCn1c(C)c(C(=O)N(C2CC2)S(=O)(=O)c2ccc(Cl)c(C(F)(F)F)c2)sc1=O` [compound 619] had a chromatographic logP of 2.01. `Cc1nn(C)c(C)c1C(=O)N(C1CC1)S(=O)(=O)c1ccc(Cl)cc1Cl` [compound 413] had a chromatographic logP of 2.8.

The molecule `Cc1nn(C)c(Cl)c1C(=O)N(C1CC1)S(=O)(=O)c1ccc(Cl)c(C(F)(F)F)c1` [compound 406] yielded a chromatographic logP of 3.76. On to `Cn1cc(C(=O)N(C2CC2)S(=O)(=O)c2ccccc2Cl)c(I)n1` [compound 214], for which the chromatographic logP is 2.31.

Molecule `CCc1onc(C(C)C)c1C(=O)N(C1CC1)S(=O)(=O)c1ccc(Cl)c(Cl)c1` [compound 595] showed a chromatographic logP of 4.77.

`O=C(c1cc(Br)c(Br)s1)N(C1CC1)S(=O)(=O)c1ccccc1Cl` [compound 15]: the chromatographic logP worked out at 4.07.

`Cc1nn(C)c(C)c1C(=O)N(C1CC1)S(=O)(=O)c1ccc(Cl)c(Cl)c1` [compound 412] showed a chromatographic logP of 3.21. Still for that read-out and setting: in the case of `CC(C)c1c(C(=O)N(C2CC2)S(=O)(=O)c2ccc(Cl)c(C(F)(F)F)c2)sc(=O)n1C1CC1` [compound 633] it was 3.01. Same read-out and setting: the same measure for `O=C(c1cccnc1Cl)N(C1CC1)S(=O)(=O)c1ccccc1Cl` [compound 644]: 2.58.

In the next data set the test system is Meloidogyne incognita.
Assay: not given
As to conditions: 336 h, 20 ppm. The class given is in vivo. The procedure: Meloidogyne incognita - test
To produce a suitable preparation of active compound, 1 part by weight of active compound is mixed with the stated amount of solvent, and the concentrate is diluted with emulsifier-containing water to the desired concentration.
Vessels are filled with sand, a solution of the active ingredient, a suspension containing eggs and larvae of Meloidogyne incognita and salad seeds. The salad seeds germinate and the seedlings grow. Galls develop in the roots.
After 14 days the nematicidal activity is determined on the basis of the percentage of gall formation. 100% means that no galls were found; 0% means that the number of galls found on the roots of the treated plants was equal to that in untreated control plants.
On to `O=C(c1cccnc1)N(C1CC1)S(=O)(=O)c1ccc(Cl)c(C(F)(F)F)c1` [compound 638], for which the “nematicidal activity determined on the basis of the percentage of gall formation” value is reported as 100%. On the same count and under the same terms, the same measure for `Cc1nc(C(=O)N(C2CC2)S(=O)(=O)c2ccc(Cl)c(C(F)(F)F)c2)cs1` [compound 69]: 80%.

For the origin of these results see patent EP2540163A1, “Nematocide N-cyclopropyl-sulfonylamide derivatives” (Bayer CropScience AG, priority 2011, dated 2013).
